Broadly, the IC50 is the concentration that gives 50% inhibition. A low value points to greater potency in that assay.

This passage reports IC50 results from publication PMC2810234, “Lyngbyastatins 8–10, Elastase Inhibitors with Cyclic Depsipeptide Scaffolds Isolated from the Marine Cyanobacterium Lyngbya semiplena” (Marine Drugs, 2009).

SMILES strings stand for the structures.

For this test, the target named is T1, porcine pancreatic elastase (Sus scrofa, UniProt P00772).
T1 construct: purchased EPC (Elastin Products Company) EC134
T1 sequence (P00772 27-266): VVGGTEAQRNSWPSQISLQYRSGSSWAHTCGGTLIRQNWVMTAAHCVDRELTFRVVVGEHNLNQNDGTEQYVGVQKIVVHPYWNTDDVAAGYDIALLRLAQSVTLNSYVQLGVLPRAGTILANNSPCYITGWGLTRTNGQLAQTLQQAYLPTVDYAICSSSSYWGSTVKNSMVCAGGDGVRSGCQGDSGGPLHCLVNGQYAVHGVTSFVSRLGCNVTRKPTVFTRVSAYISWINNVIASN
The experiment in a line: Inhibition of porcine pancreatic elastase. As to conditions: elastase stock 75 μg/mL (5 μL), Tris-HCl pH 8.0; compound 1 μL in DMSO; preincubated 15 min at room temperature; substrate 2 mM N-succinyl-Ala-Ala-Ala-p-nitroanilide solution (15 μL); absorbance 405 nm every 30 s, initial slope vs uninhibited; triplicate. Type of test: biochemical. On the procedure: A stock solution of porcine pancreatic elastase (Elastase-high purity; EPC, EC134) was prepared at a concentration of 75 μg/mL in Tris-HCl (pH 8.0). Aliquots of test compounds (1 μL, DMSO) were preincubated with 79 μL Tris-HCl (pH 8.0) and 5 μL elastase stock for 15 min at room temperature in a microtiter plate. After this time, 15 μL substrate solution was added (2 mM N-succinyl-Ala-Ala-Ala-p-nitroanilide in Tris-HCl, pH 8.0) to each well, and the reaction was followed by measuring the absorbance at 405 nm every 30 s. Enzyme activity was determined by calculating the initial slope of each progress curve, expressed as a percentage of the slope of the uninhibited reaction.
`C/C=C1\NC(=O)[C@@H](NC(=O)[C@@H](NC(=O)[C@H](C)NC(C)=O)C(C)C)[C@@H](C)OC(=O)[C@H](C(C)C)NC(=O)[C@H](Cc2ccc(O)cc2)N(C)C(=O)[C@H](Cc2ccccc2)N2C(=O)[C@H](CC[C@H]2O)NC1=O` [Compound 1, Lyngbyastatin 8] showed an IC50 of 123 ± 2 nM.

In the case of `C/C=C1\NC(=O)[C@@H](NC(=O)[C@@H](NC(=O)[C@H](C)NC(=O)CCC)C(C)C)[C@@H](C)OC(=O)[C@H](C(C)C)NC(=O)[C@H](Cc2ccc(O)cc2)N(C)C(=O)[C@H](Cc2ccccc2)N2C(=O)[C@H](CC[C@H]2O)NC1=O` [Compound 2, Lyngbyastatin 9], half-maximal inhibition (IC50) required 210 ± 10 nM.

`C/C=C1\NC(=O)[C@@H](NC(=O)[C@@H](NC(=O)[C@H](C)NC(=O)CCC)C(C)C)[C@@H](C)OC(=O)[C@H](C(C)C)NC(=O)[C@H](Cc2ccc(O)c(Br)c2)N(C)C(=O)[C@H](Cc2ccccc2)N2C(=O)[C@H](CC[C@H]2O)NC1=O` [Compound 3, Lyngbyastatin 10] registered an IC50 of 120 ± 16 nM.
